# According to the OligoGym collection:
# HELM strings list units from the 5' end as sugar, base in round brackets, then linkage (d deoxyribose, r ribose, m 2'-O-methyl, p phosphodiester). Strings are as the collection lists them, not checked against the first reports. ss, as = sense and antisense strand; [lna] = locked nucleic acid (LNA); [fl2r] = 2'-fluoro
# Conditions: siRNA
# Further: test system not given here.
row,Substance,target mRNA knockdown [%]
1,RNA1{[fl2r](G)p.m(A)p.[fl2r](C)p.m(G)p.[fl2r](U)p.m(A)p.[fl2r](A)p.m(A)p.[fl2r](C)p.m(G)p.[fl2r](G)p.m(C)p.[fl2r](C)p.m(A)p.[fl2r](C)p.m(A)p.[fl2r](A)p.m(G)p.[fl2r](U)p.m(U)p.[fl2r](C)}|RNA2{r(A)p.m(C)p.r(U)p.r(U)p.r(G)p.r(U)p.r(G)p.r(G)p.r(C)p.r(C)p.r(G)p.r(U)p.r(U)p.r(U)p.r(A)p.r(C)p.r(G)p.r(U)p.r(C)p.r(G)p.r(C)}$$$RNA1{StrandType:ss}|RNA2{StrandType:as}$,46.2
2,RNA1{[fl2r](G)p.m(A)p.[fl2r](C)p.m(G)p.[fl2r](U)p.m(A)p.[fl2r](A)p.m(A)p.[fl2r](C)p.m(G)p.[fl2r](G)p.m(C)p.[fl2r](C)p.m(A)p.[fl2r](C)p.m(A)p.[fl2r](A)p.m(G)p.[fl2r](U)p.m(U)p.[fl2r](C)}|RNA2{r(A)p.r(C)p.[lna](T)p.r(U)p.r(G)p.[lna](T)p.r(G)p.r(G)p.r(C)p.r(C)p.r(G)p.r(U)p.r(U)p.[lna](T)p.r(A)p.r(C)p.r(G)p.[lna](T)p.r(C)p.[lna](G)p.[lna](C)}$$$RNA1{StrandType:ss}|RNA2{StrandType:as}$,1.5
3,RNA1{[fl2r](G)p.m(A)p.[fl2r](C)p.m(G)p.[fl2r](U)p.m(A)p.[fl2r](A)p.m(A)p.[fl2r](C)p.m(G)p.[fl2r](G)p.m(C)p.[fl2r](C)p.m(A)p.[fl2r](C)p.m(A)p.[fl2r](A)p.m(G)p.[fl2r](U)p.m(U)p.[fl2r](C)}|RNA2{r(A)p.r(C)p.r(U)p.r(U)p.r(G)p.r(U)p.r(G)p.r(G)p.r(C)p.r(C)p.r(G)p.r(U)p.r(U)p.r(U)p.r(A)p.r(C)p.r(G)p.r(U)p.[lna](C)p.[lna](G)p.r(C)}$$$RNA1{StrandType:ss}|RNA2{StrandType:as}$,84.4
4,RNA1{[fl2r](G)p.m(A)p.[fl2r](C)p.m(G)p.[fl2r](U)p.m(A)p.[fl2r](A)p.m(A)p.[fl2r](C)p.m(G)p.[fl2r](G)p.m(C)p.[fl2r](C)p.m(A)p.[fl2r](C)p.m(A)p.[fl2r](A)p.m(G)p.[fl2r](U)p.m(U)p.[fl2r](C)}|RNA2{r(A)p.r(C)p.r(U)p.r(U)p.r(G)p.r(U)p.r(G)p.r(G)p.r(C)p.r(C)p.r(G)p.r(U)p.r(U)p.r(U)p.r(A)p.r(C)p.r(G)p.r(U)p.r(C)p.r(G)p.r(C)}$$$RNA1{StrandType:ss}|RNA2{StrandType:as}$,87.3
5,RNA1{[fl2r](G)p.r(A)p.[fl2r](C)p.r(C)p.[fl2r](A)p.r(C)p.[fl2r](G)p.r(A)p.[fl2r](A)p.r(G)p.[fl2r](A)p.r(G)p.[fl2r](U)p.r(U)p.[fl2r](A)p.r(A)p.[fl2r](C)p.r(C)p.[fl2r](C)p.r(T)p.r(T)}|RNA2{r(G)p.r(G)p.r(G)p.r(U)p.r(U)p.r(A)p.r(A)p.r(C)p.r(U)p.r(C)p.r(U)p.r(U)p.r(C)p.r(G)p.r(U)p.r(G)p.r(G)p.r(U)p.r(C)p.r(T)p.r(T)}$$$RNA1{StrandType:ss}|RNA2{StrandType:as}$,51
6,RNA1{[fl2r](G)p.r(A)p.[fl2r](G)p.r(U)p.[fl2r](A)p.r(U)p.[fl2r](U)p.r(U)p.[fl2r](C)p.r(C)p.[fl2r](G)p.r(C)p.[fl2r](U)p.r(G)p.[fl2r](G)p.r(A)p.[fl2r](A)p.r(C)p.[fl2r](U)p.r(T)p.r(T)}|RNA2{r(A)p.r(G)p.r(U)p.r(U)p.r(C)p.r(C)p.r(A)p.r(G)p.r(C)p.r(G)p.r(G)p.r(A)p.r(A)p.r(A)p.r(U)p.r(A)p.r(C)p.r(U)p.r(C)p.r(T)p.r(T)}$$$RNA1{StrandType:ss}|RNA2{StrandType:as}$,21
7,RNA1{[fl2r](G)p.r(C)p.[fl2r](C)p.r(U)p.[fl2r](C)p.r(U)p.[fl2r](C)p.r(U)p.[fl2r](A)p.r(U)p.[fl2r](C)p.r(C)p.[fl2r](U)p.r(U)p.[fl2r](A)p.r(G)p.[fl2r](C)p.r(U)p.r(U)p.r(T)p.r(T)}|RNA2{r(A)p.r(A)p.r(G)p.r(C)p.r(U)p.r(A)p.[fl2r](A)p.r(G)p.r(G)p.r(A)p.r(U)p.[fl2r](A)p.r(G)p.r(A)p.r(G)p.r(A)p.r(G)p.r(G)p.r(C)p.r(T)p.r(T)}$$$RNA1{StrandType:ss}|RNA2{StrandType:as}$,34
8,RNA1{[fl2r](G)p.r(C)p.[fl2r](U)p.r(A)p.[fl2r](C)p.r(C)p.[fl2r](G)p.r(C)p.[fl2r](A)p.r(A)p.[fl2r](C)p.r(C)p.[fl2r](A)p.r(C)p.[fl2r](G)p.r(A)p.[fl2r](G)p.r(C)p.[fl2r](U)p.r(T)p.r(T)}|RNA2{r(A)p.r(G)p.r(C)p.r(U)p.r(C)p.r(G)p.r(U)p.r(G)p.r(G)p.r(U)p.r(U)p.r(G)p.r(C)p.r(G)p.r(G)p.r(U)p.r(A)p.r(G)p.r(C)p.r(T)p.r(T)}$$$RNA1{StrandType:ss}|RNA2{StrandType:as}$,21
9,RNA1{[fl2r](G)p.r(C)p.[fl2r](U)p.r(G)p.[fl2r](A)p.r(A)p.[fl2r](C)p.r(U)p.[fl2r](A)p.r(G)p.[fl2r](U)p.r(C)p.[fl2r](G)p.r(A)p.[fl2r](A)p.r(A)p.[fl2r](G)p.r(A)p.[fl2r](A)p.r(T)p.r(T)}|RNA2{r(U)p.r(U)p.r(C)p.r(U)p.r(U)p.r(U)p.r(C)p.r(G)p.[fl2r](A)p.r(C)p.r(U)p.[fl2r](A)p.r(G)p.r(U)p.r(U)p.r(C)p.[fl2r](A)p.r(G)p.r(C)p.r(T)p.r(T)}$$$RNA1{StrandType:ss}|RNA2{StrandType:as}$,49
10,RNA1{[fl2r](G)p.r(C)p.[fl2r](U)p.r(G)p.[fl2r](U)p.r(A)p.[fl2r](A)p.r(C)p.[fl2r](C)p.r(U)p.[fl2r](C)p.r(G)p.[fl2r](G)p.r(A)p.[fl2r](G)p.r(A)p.[fl2r](G)p.r(U)p.r(U)p.r(T)p.r(T)}|RNA2{r(A)p.r(A)p.r(C)p.r(U)p.r(C)p.r(U)p.r(C)p.r(C)p.r(G)p.r(A)p.r(G)p.r(G)p.r(U)p.r(U)p.r(A)p.r(C)p.r(A)p.r(G)p.r(C)p.r(T)p.r(T)}$$$RNA1{StrandType:ss}|RNA2{StrandType:as}$,51
11,RNA1{[fl2r](G)p.r(C)p.[fl2r](U)p.r(U)p.[fl2r](C)p.r(G)p.[fl2r](G)p.r(A)p.[fl2r](A)p.r(A)p.[fl2r](C)p.r(U)p.[fl2r](G)p.r(G)p.[fl2r](A)p.r(C)p.[fl2r](A)p.r(U)p.[fl2r](C)p.r(T)p.r(T)}|RNA2{[fl2r](G)p.r(A)p.r(U)p.[fl2r](G)p.r(U)p.r(C)p.r(C)p.r(A)p.[fl2r](G)p.r(U)p.r(U)p.r(U)p.r(C)p.r(C)p.[fl2r](G)p.r(A)p.r(A)p.[fl2r](G)p.r(C)p.r(T)p.r(T)}$$$RNA1{StrandType:ss}|RNA2{StrandType:as}$,29
12,RNA1{[fl2r](G)p.r(G)p.[fl2r](A)p.r(A)p.[fl2r](G)p.r(A)p.[fl2r](A)p.r(G)p.[fl2r](A)p.r(U)p.[fl2r](A)p.r(G)p.[fl2r](A)p.r(G)p.[fl2r](C)p.r(A)p.[fl2r](U)p.r(C)p.[fl2r](C)p.r(T)p.r(T)}|RNA2{r(G)p.r(G)p.r(A)p.[fl2r](U)p.r(G)p.r(C)p.r(U)p.r(C)p.[fl2r](U)p.r(A)p.r(U)p.r(C)p.r(U)p.r(U)p.r(C)p.r(U)p.r(U)p.r(C)p.r(C)p.r(T)p.r(T)}$$$RNA1{StrandType:ss}|RNA2{StrandType:as}$,13
13,RNA1{[fl2r](G)p.r(G)p.[fl2r](C)p.r(U)p.[fl2r](U)p.r(A)p.[fl2r](G)p.r(U)p.[fl2r](C)p.r(A)p.[fl2r](C)p.r(U)p.[fl2r](C)p.r(C)p.[fl2r](U)p.r(C)p.[fl2r](U)p.r(U)p.[fl2r](C)p.r(T)p.r(T)}|RNA2{r(G)p.r(A)p.r(A)p.r(G)p.r(A)p.r(G)p.r(G)p.r(A)p.r(G)p.r(U)p.r(G)p.r(A)p.r(C)p.r(U)p.r(A)p.r(A)p.r(G)p.r(C)p.r(C)p.r(T)p.r(T)}$$$RNA1{StrandType:ss}|RNA2{StrandType:as}$,23
14,RNA1{[fl2r](G)p.r(U)p.[fl2r](U)p.r(C)p.[fl2r](A)p.r(C)p.[fl2r](G)p.r(U)p.[fl2r](C)p.r(C)p.[fl2r](U)p.r(A)p.[fl2r](C)p.r(C)p.[fl2r](C)p.r(C)p.[fl2r](U)p.r(U)p.[fl2r](U)p.r(T)p.r(T)}|RNA2{r(A)p.r(A)p.r(A)p.r(G)p.r(G)p.r(G)p.r(G)p.r(U)p.r(A)p.r(G)p.r(G)p.r(A)p.[fl2r](C)p.r(G)p.r(U)p.r(G)p.r(A)p.r(A)p.[fl2r](C)p.r(T)p.r(T)}$$$RNA1{StrandType:ss}|RNA2{StrandType:as}$,23
15,RNA1{[fl2r](U)p.r(A)p.[fl2r](A)p.r(C)p.[fl2r](C)p.r(C)p.[fl2r](C)p.r(A)p.[fl2r](A)p.r(G)p.[fl2r](A)p.r(A)p.[fl2r](C)p.r(G)p.[fl2r](G)p.r(G)p.[fl2r](C)p.r(U)p.[fl2r](U)p.r(T)p.r(T)}|RNA2{[fl2r](A)p.[fl2r](A)p.r(G)p.r(C)p.r(C)p.r(C)p.r(G)p.r(U)p.r(U)p.r(C)p.r(U)p.r(U)p.r(G)p.r(G)p.r(G)p.r(G)p.r(U)p.r(U)p.[fl2r](A)p.r(T)p.r(T)}$$$RNA1{StrandType:ss}|RNA2{StrandType:as}$,47
16,RNA1{[fl2r](U)p.r(A)p.r(A)p.r(C)p.r(C)p.r(C)p.[fl2r](C)p.r(A)p.r(A)p.r(G)p.r(A)p.r(A)p.[fl2r](C)p.r(G)p.r(G)p.r(G)p.r(C)p.r(U)p.r(U)p.r(T)p.r(T)}|RNA2{r(A)p.r(A)p.r(G)p.r(C)p.r(C)p.r(C)p.[fl2r](G)p.r(U)p.r(U)p.r(C)p.r(U)p.[fl2r](U)p.r(G)p.r(G)p.r(G)p.r(G)p.r(U)p.[fl2r](U)p.r(A)p.r(T)p.r(T)}$$$RNA1{StrandType:ss}|RNA2{StrandType:as}$,72
17,RNA1{[fl2r](U)p.r(A)p.r(A)p.r(C)p.r(C)p.r(C)p.r(C)p.r(A)p.r(A)p.r(G)p.r(A)p.r(A)p.r(C)p.r(G)p.r(G)p.r(G)p.r(C)p.r(U)p.r(U)p.r(T)p.r(T)}|RNA2{r(A)p.r(A)p.r(G)p.r(C)p.r(C)p.r(C)p.r(G)p.r(U)p.r(U)p.r(C)p.r(U)p.r(U)p.r(G)p.r(G)p.r(G)p.r(G)p.r(U)p.[fl2r](U)p.r(A)p.r(T)p.r(T)}$$$RNA1{StrandType:ss}|RNA2{StrandType:as}$,73
18,RNA1{[fl2r](U)p.r(C)p.[fl2r](C)p.r(A)p.[fl2r](A)p.r(G)p.[fl2r](C)p.r(U)p.[fl2r](U)p.r(C)p.[fl2r](C)p.r(U)p.[fl2r](C)p.r(G)p.[fl2r](U)p.r(U)p.[fl2r](G)p.r(G)p.[fl2r](U)p.r(T)p.r(T)}|RNA2{r(A)p.r(C)p.r(C)p.r(A)p.r(A)p.r(C)p.r(G)p.r(A)p.r(G)p.r(G)p.r(A)p.r(A)p.r(G)p.r(C)p.[fl2r](U)p.[fl2r](U)p.r(G)p.r(G)p.r(A)p.r(T)p.r(T)}$$$RNA1{StrandType:ss}|RNA2{StrandType:as}$,51
